Data reported in patent US20090181933A1, “USE OF STEROIDS TO TREAT PERSONS SUFFERING FROM OCULAR DISORDERS” (priority 2008, published 2009).

Key:
[1] = system: IOP of rabbits receiving subTenon's dexamethasone acetate; experiment: Rabbit dexamethasone acetate-induced IOP elevation, topical ocular dosing; assay type: in vivo; settings: for IOP change versus vehicle treated group: weekly subTenon's dexamethasone acetate 1 mg/kg
Experimental: Three groups of rabbits received weekly subTenon's injections of dexamethasone acetate (1 mg/kg) for 4 weeks. After two weeks, the […] of all three groups measured approximately 5 mm Hg. The rabbits were then treated with vehicle, 0.1% anecortave acetate, a 1% anecortave acetate by topical ocular dosing three times a day for the remaining 2 weeks. The IOP continued to increase in the vehicle treated group.

[2] = system: glucocorticoid induced ocular hypertension; experiment: Topical anecortave acetate eye drops in patients with glucocorticoid induced ocular hypertension; assay type: in vivo, human (patients); settings: 1% eye drops topically three times per day for up to 12 weeks, glucocorticoid continued, reduced from 29 mm Hg
Experimental: Patients ([…]) with documented glucocorticoid induced ocular hypertension were treated topically with 1% anecortave acetate eye drops three times per day for up to 12 weeks. The patients continued to receive their glucocorticoid medication.

IOPs (printed TOPs) after two weeks of dexamethasone acetate ([1]; weekly subTenon's injections 1 mg/kg, after two weeks, all three groups) | SMILES | IOP after anecortave acetate treatment [2] | IOP change versus vehicle treated group ([1]; 0.1% topical ocular three times a day for 2 weeks) | IOP change versus vehicle treated group ([1]; 1% topical ocular three times a day for 2 weeks)
approximately 5 mm Hg | CC(=O)OCC(=O)[C@@]1(O)[C@H](C)C[C@H]2[C@@H]3CCC4=CC(=O)C=C[C@]4(C)[C@@]3(F)[C@@H](O)C[C@@]21C [dexamethasone acetate] | – | – | –
– | CC(=O)OCC(=O)[C@@]1(O)CC[C@H]2[C@@H]3CCC4=CC(=O)CC[C@]4(C)C3=CC[C@@]21C [anecortave acetate, 4,9(11)-pregnadien-17α,21-diol-3,20dione-21-acetate] | 19-22 mm Hg | significantly lowered | significantly lowered
